From patent US6890923B2, “Compounds” (AstraZeneca AB, priority 2002, dated 2005)

A melting point of 113 to 114 °C was found for `CC(C)Cn1c(=O)n(C)c(=O)c2c(-c3ccsc3)c(Cc3ccccc3C(F)(F)F)sc21` [Example 6, 3-Methyl-1-(2-methylpropyl)-5-(3-thienyl)-6-[[2-(trifluoromethyl)phenyl]methyl]-thieno[2,3-d]pyrimidine-2,4(1H,3H)-dione] in this work.

A melting point of 165 to 167 °C was found for `CC(C)Cn1c(=O)n(C)c(=O)c2c(CCC(=O)O)c(Cc3ccccc3C(F)(F)F)sc21` [Example 28, 1,2,3,4-Tetrahydro-3-methyl-1-(2-methylpropyl)-2,4-dioxo-6-[[2-(trifluoromethyl)phenyl]methyl]-thieno[2,3-d]pyrimidine-5-propanoic acid] in this work.
